The values that follow come from patent US20090075921A1, “Bone/joint disease sensitivity gene and use thereof” (Riken, priority 2004, published 2009).

In experiment [1] the test system is ATDC5. The experiment is described as follows: Chondrocyte differentiation experiments in ATDC5 with CaM inhibitor. The format is cell-based, mouse. Conditions: W-7 20 μM in insulin-containing differentiation medium. The source says:
The embryonic tumor-derived cloned cell line ATDC5 is an in vitro chondrocyte differentiation model that enables the reproduction of all differentiation stages of chondrocytes, from initial differentiation to terminal differentiation, in the presence of insulin. To analyze the role of calmodulin (CaM) in chondrocyte differentiation, the present inventors cultured ATDC5 in the presence of W-7, which is a CaM inhibitor, and quantified the expression levels of chondrocyte differentiation markers, i.e., the type II collagen gene (Col2a1), the aggrecan gene (Agc1), and the type X collagen gene (Col10a1). […] Medium exchange was performed every two days; cultivation was continued for up to 22 days, counted from the day of exchange to the differentiation medium. […] Quantitative real-time PCR was performed using ABI PRISM 7700 (Applied Biosystems). PCR reactions were performed using a system of a final volume of 20 μl [reverse transcription reaction mixture 1 μl, QuantiTect SYBR Green PCR (QIAGEN) 10 μl, 10 μM forward primer 0.6 μl, 10 μM reverse primer 0.6 μl, […]]. […] The copy number of the target gene in each sample was calculated from a calibration curve prepared using serial dilutions of target gene DNA of a known copy number. The expression level of each gene was corrected by total RNA content calculated with the expression level of Gapdh as the index.

The subject of experiment [2] is RCJ3.1C5.18 cells. Nature of the experiment: Ionomycin stimulation experiments in chondrocyte precursor cell line RCJ3.1C5.18. The format is cell-based, rat. As to conditions: ionomycin 2 μM, W-7 0 to 10 μM, 24 hours. Here is the method: RCJ3.1C5.18 cells are cells having characters as chondrocyte precursor cells, and showing increased expression of the type II collagen gene and the aggrecan gene in response to stimulation with ionomycin, which is a reagent that raises intracellular calcium concentrations. The present inventors analyzed the involvement of CaM in this reaction using W-7, which is a CaM inhibitor. For ordinary culture, DMEM (Sigma) comprising 10% FBS and antibiotics (100 U/ml penicillin G and 100 μg/ml streptomycin) was used. The stimulation experiments were performed by the procedure shown below. Cells were inoculated to a 12-multiwell plate at 1×10^5 cells/well. […] Quantitative real-time PCR was performed using ABI PRISM 7700 (Applied Biosystems). PCR reactions were performed using a system of a final volume of 20 μl [reverse transcription reaction mixture 1 μl, QuantiTect SYBR Green PCR (QIAGEN) 10 μl, 10 μM forward primer 0.6 μl, 10 μM reverse primer 0.6 μl, […]]. […] The copy number of the target gene in each sample was calculated from a calibration curve prepared using serial dilutions of target gene DNA of a known copy number. The expression level of each gene was corrected by total RNA content calculated with the expression level of GADPH as the index.

Experiment [3] has as its system NHAC. The experiment is described as follows: Effect of cycloheximide on asporin gene expression induction by TGF-β1 in NHAC. The experiment is classed as cell-based, human. Here is the method:
A time course of the expression of the asporin gene by TGF-β1 in NHAC was examined as described below. Cells were inoculated to a 12-well plate at 1×10^5 cells/well, and cultured in a DMEM/F12 containing 10% FBS until they became confluent. The medium was exchanged with a DMEM/F12 containing 0.2% FBS, and the cells were cultured for 24 hours, after which TGF-β1 (10 ng/ml) was added, total RNA was extracted over time, and the expression levels of the asporin and GAPDH genes were examined. As a result, the expression level of the asporin gene maximized when the cells were cultured in the presence of TGF-β1 (10 ng/ml) for 12 hours, and thereafter the expression level decreased over time (FIG. 46).
In the experimental system for asporin gene-expression induction by TGF-β1 used in the method described in Example 54, the effect of CHX (Sigma) (10 μM), a protein synthesis inhibitor, on the induction of the expression of the asporin gene (12 hours), when added 30 minutes before, simultaneously with, or 2 hours or 6 hours after addition of TGF-β1 (10 ng/ml), was examined. As a result, when CHX was added 30 minutes before, and simultaneously with, the addition of TGF-β1, asporin induction by TGF-β1 was inhibited (FIG. 48).

The target in experiment [4] is TGF-β1 (Homo sapiens, UniProt P01137). The experiment is described as follows: Microplate binding assay, inhibition of biotinylated decholine binding to TGF-β1 solid phase. As to conditions: TGF-β1-coated microplate. Here is the method:
A binding assay of mouse asporin and TGF-β using the microplate assay method was performed with the degree of inhibition of binding of biotinylated decholine and TGF-β as the index, as described below. To a Maxisorp 96-well microplate of Nunc, a 1 μg/ml TGF-β1 solution prepared with 0.05 M sodium carbonate buffer (pH 9.6) was dispensed at 100 μl/well, and the microplate was coated with the solution at 4° C. overnight. The TGF-β-coated wells were blocked in a 200 μl/well of binding buffer (50 mM Tris (pH 7.4), 150 mM NaCl, 2% BSA, 0.05% Tween 20) at 37° C. for 3 hours. The wells were once washed with a 400 μl/well of binding buffer, after which biotinylated decholine and non-labeled protein, prepared with the binding buffer, were added to obtain a total quantity of 100 μl per well, and the microplate was incubated at 37° C. for 6 hours. The wells were washed with a 400 μl/well of binding buffer 3 times, after which streptavidin-HRP (R&D System), diluted 200 fold with the binding buffer, was added at 100 μl/well, and the microplate was incubated at room temperature for 20 minutes. […] The reaction was stopped by the direct addition of 1 M phosphoric acid at 100 μl/well, and absorbance at 415 nm (control: 750 nm) was measured using Ultramark Microplate Imaging System (BIO-RAD). […]

Chain of TGF-β1 (P01137 279-390 limits assumed, species assumed): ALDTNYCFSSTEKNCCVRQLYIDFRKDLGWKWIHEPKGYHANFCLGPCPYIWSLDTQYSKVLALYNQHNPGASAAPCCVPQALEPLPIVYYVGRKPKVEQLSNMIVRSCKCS

On to `NCCCCCCNS(=O)(=O)c1cccc2c(Cl)cccc12` [W-7], for which, in experiment [1] (real-time PCR), the “increases in the expression levels of Col2a1 and Agc1” value was “suppressed to about half”. Moreover, in experiment [1] (up to Day 22), the “expression level of Col10a1” value is reported as “further rose”. Also, in experiment [2], the “ionomycin-induced expression of the type II collagen gene and the aggrecan gene” value is given as “suppressed dose-dependently”.
For the molecule `C[C@@H]1C[C@@H]([C@H](O)CC2CC(=O)NC(=O)C2)C(=O)[C@@H](C)C1` [CHX, cycloheximide], the “asporin induction by TGF-β1” value in experiment [3] (CHX 10 μM added 30 minutes before or simultaneously with TGF-β1 10 ng/ml) is on record as “inhibited”; in experiment [3] (CHX 10 μM added at 2 hours or thereafter following TGF-β1), “induction of asporin gene expression by TGF-β1 was observed”.

B1: Fr.18-21: partially purified product of Escherichia coli recombinant S-tagged mouse asporin (protein, UniProt Q99MQ4 33-373, looked up)
Asporin: DMEDTDDDDNDDDDNSLFPTKEPVNPFFPFDLFPTCPFGCQCYSRVVHCSDLGLTSVPNNIPFDTRMVDLQNNKIKEIKENDFKGLTSLYALILNNNKLTKIHPKTFLTTKKLRRLYLSHNQLSEIPLNLPKSLAELRIHDNKVKKIQKDTFKGMNALHVLEMSANPLENNGIEPGAFEGVTVFHIRIAEAKLTSIPKGLPPTLLELHLDFNKISTVELEDLKRYRELQRLGLGNNRITDIENGTFANIPRVREIHLEHNKLKKIPSGLQELKYLQIIFLHYNSIAKVGVNDFCPTVPKMKKSLYSAISLFNNPMKYWEIQPATFRCVLGRMSVQLGNVGK
modifications: S-tag; partially purified fraction
notes: partially purified product of Escherichia coli recombinant S-tagged mouse asporin
Consider B1, for which, in experiment [4], the “inhibition of binding of biotinylated decholine to TGF-β1” value is recorded as “observed with dependence on protein content”.

B2: S-tagged mouse asporin: S-tagged mature mouse asporin expressed in E. coli from pET29b-MASP, contained in Fr.18-21 (protein)
chain: DMEDTDDDDNDDDDNSLFPTKEPVNPFFPFDLFPTCPFGCQCYSRVVHCSDLGLTSVPNNIPFDTRMVDLQNNKIKEIKENDFKGLTSLYALILNNNKLTKIHPKTFLTTKKLRRLYLSHNQLSEIPLNLPKSLAELRIHDNKVKKIQKDTFKGMNALHVLEMSANPLENNGIEPGAFEGVTVFHIRIAEAKLTSIPKGLPPTLLELHLDFNKISTVELEDLKRYRELQRLGLGNNRITDIENGTFANIPRVREIHLEHNKLKKIPSGLQELKYLQIIFLHYNSIAKVGVNDFCPTVPKMKKSLYSAISLFNNPMKYWEIQPATFRCVLGRMSVQLGNVGK
modifications: left off: small tags and cut ends
In the case of B2, the “binding of S-tagged mouse asporin to the TGF-β1 solid phase” value in experiment [4] is recorded as “binding of S-tagged mouse asporin was observed”.
